Experimental data reported in patent publication US20230017045A1, “PYRIDINE AND PYRIMIDINE CARBOXYLATE HERBICIDES AND METHODS OF USE THEREOF” (Dow AgroSciences LLC, priority 2017, published 2023).
Like-named read-outs stand apart in the source and are kept apart here.

System: test plant species
Assay: Post-emergent herbicidal activity test (greenhouse, foliar spray, visual growth reduction)
Assay type: in vivo
Conditions: post-emergence, 336 h, 140 g ai/ha, 14 days after application
Description: Post-emergent Test: Seeds or nutlets of the desired test plant species were planted in Sun Gro Metro-Mix® 360 planting mixture, which typically has a pH of 6.0 to 6.8 and an organic matter content of about 30 percent, in plastic pots with a surface area of 64 square centimeters. In some aspects, to ensure good germination and healthy plants, a fungicide treatment and/or other chemical or physical treatment was applied. The plants were grown for 7-21 d in a greenhouse with an approximate 15 h photoperiod which was maintained at 23-29° C. during the day and 22-28° C. during the night. Nutrients and water were added on a regular basis and supplemental lighting was provided with overhead metal halide 1000-Watt lamps as necessary. Plants were used for testing when they reached the first or second true leaf stage. A weighed amount, determined by the highest rate to be tested, of each test compound was placed in a 25 mL glass vial and was dissolved in 4 mL of a 97:3 v/v mixture of acetone and DMSO to obtain concentrated stock solutions. […] The concentrated stock solutions obtained were diluted with 20 mL of an aqueous mixture containing acetone, water, isopropyl alcohol, DMSO, […] crop oil concentrate, and X-77 surfactant in a 48.5:39:10:1.5:1.0:0.02 v/v ratio to obtain spray solutions containing the application rate. Compound requirements are based upon a 12 mL application volume at a rate of 187 liters per hectare (L/ha). Formulated compounds were applied to the plant material with an overhead Mandel track sprayer equipped with […] nozzles calibrated to deliver 187 L/ha over an application area of 0.64 square meters at a spray height of 18 inches (43 cm) above the average plant canopy height. Control plants were sprayed in the same manner with the solvent blank. The treated plants and control plants were placed in a greenhouse as described above and watered by subirrigation to prevent wash-off of the test compounds. After 14 d, the condition of the test plants as compared with that of the nontreated and control plants was determined visually and scored on a scale of 0 to 100 percent where 0 corresponds to no injury and 100 corresponds to complete control. In the reporting of the results, Table A: Percent Growth Reduction Conversion Table was used.

[1] = ALOMY: blackgrass (Alopecurus myosuroides), read-out: Visual Growth Reduction (%) 14 Days After Application, ALOMY
[2] = AMARE: redroot pigweed (Amaranthus retroflexus), read-out: Visual Growth Reduction (%) 14 Days After Application, AMARE
[3] = AVEFA: wild oat (Avena fatua), read-out: Visual Growth Reduction (%) 14 Days After Application, AVEFA
[4] = CHEAL: lambsquarters (Chenopodium album), read-out: Visual Growth Reduction (%) 14 Days After Application, CHEAL
[5] = CIRAR: canada thistle (Cirsium arvense), read-out: Visual Growth Reduction (%) 14 Days After Application, CIRAR
[6] = CYPES: yellow nutsedge (Cyperus esculentus), read-out: Visual Growth Reduction (%) 14 Days After Application, CYPES
[7] = DIGSA: crabgrass (Digitaria sanguinalis), read-out: Visual Growth Reduction (%) 14 Days After Application, DIGSA
[8] = ECHCG: barnyardgrass (Echinochloa crus-galli), read-out: Visual Growth Reduction (%) 14 Days After Application, ECHCG
[9] = IPOHE: ivy-leaf morning glory (Ipomoea hederacea), read-out: Visual Growth Reduction (%) 14 Days After Application, IPOHE
[10] = KCHSC: kochia (Bassia scoparia), read-out: Visual Growth Reduction (%) 14 Days After Application, KCHSC
[11] = ORYSA: rice (Oryza sativa), read-out: Visual Growth Reduction (%) 14 Days After Application, ORYSA
[12] = SETFA: giant foxtail (Setaria faberi), read-out: Visual Growth Reduction (%) 14 Days After Application, SETFA
[13] = SORVU: grain sorghum (Sorghum vulgare), read-out: Visual Growth Reduction (%) 14 Days After Application, SORVU
[14] = STEME: common chickweed (Stellaria media), read-out: Visual Growth Reduction (%) 14 Days After Application, STEME
[15] = TRZAS: wheat, spring (Triticum aestivum), read-out: Visual Growth Reduction (%) 14 Days After Application, TRZAS

Compound	pest or weed control at 140 g/ha [1] [%]	pest or weed control at 140 g/ha [2] [%]	pest or weed control at 140 g/ha [3] [%]	pest or weed control at 140 g/ha [4] [%]	pest or weed control at 140 g/ha [5] [%]	pest or weed control at 140 g/ha [6] [%]	pest or weed control at 140 g/ha [7] [%]	pest or weed control at 140 g/ha [8] [%]	pest or weed control at 140 g/ha [9] [%]	pest or weed control at 140 g/ha [10] [%]	pest or weed control at 140 g/ha [11] [%]	pest or weed control at 140 g/ha [12] [%]	pest or weed control at 140 g/ha [13] [%]	pest or weed control at 140 g/ha [14] [%]	pest or weed control at 140 g/ha [15] [%]
COC(=O)c1nc(-c2ccc(C(F)(F)F)cc2Cl)cc(OC)c1Cl [F39, Methyl 3-chloro-6-(trifluoromethyl) phenyl)-4-methoxypicolinate]	0 to 29	0 to 29	0 to 29	0 to 29	0 to 29	0 to 29	0 to 29	0 to 29	0 to 29	0 to 29	0 to 29	0 to 29	30 to 44	0 to 29	0 to 29
C#Cc1cc(-c2ccc(C(F)(F)F)cc2Cl)nc(C(=O)OC)c1Cl [F40, methyl 3-chloro-6-(2-chloro-4-(trifluoromethyl)phenyl)-4-ethynylpicolinate]	0 to 29	0 to 29	0 to 29	0 to 29	0 to 29	0 to 29	0 to 29	0 to 29	30 to 44	0 to 29	0 to 29	0 to 29	60 to 74	0 to 29	0 to 29
COC(=O)c1nc(-c2ccc(C(F)(F)F)cc2Cl)cc(Br)c1Cl [F41, methyl 4-bromo-3-chloro-6-(2-chloro-4-(trifluoromethyl)phenyl)picolinate]	0 to 29	0 to 29	0 to 29	0 to 29	0 to 29	0 to 29	0 to 29	0 to 29	0 to 29	0 to 29	0 to 29	0 to 29	0 to 29	0 to 29	0 to 29
COC(=O)c1nc(-c2ccc(C(F)(F)F)cc2Cl)c(F)c(Cl)c1Cl [F43, methyl 3,4-dichloro-6-(2-chloro-4-(trifluoromethyl)phenyl)-5-fluoropicolinate]	0 to 29	0 to 29	0 to 29	0 to 29	0 to 29	0 to 29	0 to 29	0 to 29	0 to 29	0 to 29	0 to 29	0 to 29	45 to 59	0 to 29	0 to 29
C#CCOC(=O)c1nc(-c2ccc(C(F)(F)F)cc2Cl)ccc1Cl [F45, prop-2-yn-1-yl 3-chloro-6-(2-chloro-4-(trifluoromethyl)phenyl)picolinate]	30 to 44	95 to 100	45 to 59	95 to 100	95 to 100	0 to 29	95 to 100	30 to 44	–	85 to 94	60 to 74	85 to 94	85 to 94	75 to 84	85 to 94
COC(=O)c1nc(-c2cc(F)c(C)cc2Cl)ccc1Cl [F46, Methyl 3-chloro-6-(2-chloro-5-fluoro-4-methylphenyl) picolinate]	0 to 29	0 to 29	0 to 29	60 to 74	0 to 29	0 to 29	0 to 29	0 to 29	–	0 to 29	0 to 29	0 to 29	0 to 29	0 to 29	0 to 29
COC(=O)c1nc(-c2cc(OC)c(Cl)cc2Cl)ccc1Cl [F47, Methyl 3-chloro-6-(2,4-dichloro-5-methoxyphenyl) picolinate]	0 to 29	0 to 29	0 to 29	0 to 29	0 to 29	0 to 29	0 to 29	0 to 29	–	0 to 29	0 to 29	0 to 29	0 to 29	0 to 29	0 to 29
COC(=O)c1nc(-c2ccc(Cl)c(C)c2Cl)ccc1Cl [F48, Methyl 3-chloro-6-(2,4-dichloro-3-methylphenyl) picolinate]	0 to 29	60 to 74	0 to 29	95 to 100	0 to 29	0 to 29	0 to 29	0 to 29	–	45 to 59	0 to 29	0 to 29	0 to 29	0 to 29	0 to 29
COC(=O)c1nc(-c2cc(C)c(C)cc2Cl)ccc1Cl [F49, Methyl 3-chloro-6-(2-chloro-4,5-dimethylphenyl) picolinate]	0 to 29	30 to 44	0 to 29	45 to 59	0 to 29	0 to 29	0 to 29	0 to 29	0 to 29	0 to 29	0 to 29	0 to 29	0 to 29	0 to 29	0 to 29
